Assays:
Settings in all cases: 72 h
Hs578T [1] = system: Hs578T
Procedure, shortened: (§1)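 EC50 was fitted from dose-response curves and censored at the highest concentration tested. To build those curves, breast cancer cell lines (20 µl suspension) were seeded into 384-well plates containing compound at 5 concentrations in 10-fold steps over a compound-specific 10,000-fold range and incubated for 72 h. Readouts were CellTox Green fluorescence (485/520 nm) for cell death and then CellTiter-Glo luminescence for viability, with each plate normalised to 0.1 % DMSO and a positive kill control.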

HCC1599 [2] = system: HCC1599
Procedure, shortened: as §1

HCC1937 = system: HCC1937
Procedure, shortened: as §1

CAL-85-1 [3] = system: CAL-85-1
Procedure, shortened: as §1

MCF-10A [4] = system: MCF-10A
Procedure, shortened: as §1

HDQ-P1 [5] = system: HDQ-P1
Procedure, shortened: as §1

MDA-MB-436 [6] = system: MDA-MB-436
Procedure, shortened: as §1

CAL-148 [7] = system: CAL-148
Procedure, shortened: as §1

MDA-MB-453 = system: MDA-MB-453
Procedure, shortened: as §1

DU-4475 [8] = system: DU-4475
Procedure, shortened: as §1

MDA-MB-231 [9] = system: MDA-MB-231
Procedure, shortened: as §1

BT-549 [10] = system: BT-549
Procedure, shortened: as §1

MFM-223 [11] = system: MFM-223
Procedure, shortened: as §1

HCC1143 [12] = system: HCC1143
Procedure, shortened: as §1

SK-BR-3 [13] = system: SK-BR-3
Procedure, shortened: as §1

CAL-120 [14] = system: CAL-120
Procedure, shortened: as §1

Hs578T [15] = system: Hs578T; remark: listed apart in the source
Procedure, shortened: (§2)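 Breast cancer cell lines in 20 µl suspension were seeded onto 384-well plates pre-loaded with compound dissolved in 5 µl medium, then incubated 72 h. For viability, 2.5 µl CellTiter-Blue was added for 2 h at 37 °C and fluorescence read at 560/590 nm. Each plate was normalised to vehicle and a positive kill control and checked by Z'-factor. EC50 comes from the fitted percent-inhibition dose-response curve, censored at the highest concentration; rows with zero drug sensitivity score were dropped.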

HCC1599 [16] = system: HCC1599; remark: listed apart in the source
Procedure, shortened: as §2

BT-474 [17] = system: BT-474
Procedure, shortened: as §2

MDA-MB-436 [18] = system: MDA-MB-436; remark: listed apart in the source
Procedure, shortened: as §2

BT-549 [19] = system: BT-549; remark: listed apart in the source
Procedure, shortened: as §2

MFM-223 [20] = system: MFM-223; remark: listed apart in the source
Procedure, shortened: as §2

HCC1143 [21] = system: HCC1143; remark: listed apart in the source
Procedure, shortened: as §2

SK-BR-3 [22] = system: SK-BR-3; remark: listed apart in the source
Procedure, shortened: as §2

MDA-MB-468 [23] = system: MDA-MB-468
Procedure, shortened: as §2

CAL-85-1 [24] = system: CAL-85-1; remark: listed apart in the source
Procedure, shortened: as §2

CAL-51 [25] = system: CAL-51
Procedure, shortened: as §2

HDQ-P1 [26] = system: HDQ-P1; remark: listed apart in the source
Procedure, shortened: as §2

DU-4475 [27] = system: DU-4475; remark: listed apart in the source
Procedure, shortened: as §2

Hs578T [28] = system: Hs578T; remark: listed apart in the source
Experimental: (§3)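 Drug sensitivity and resistance testing (DSRT) of breast cancer cell lines in 384-well plates, 5 concentrations in 10-fold dilutions over a compound-specific 10,000-fold range. After 72 h, cytotoxicity was read by CellTox Green fluorescence and viability by CellTiter-Glo luminescence (multiplexed), normalised to DMSO and benzethonium chloride controls. EC50 is the inflection point of the fitted dose-response curve (bottom asymptote free, so it can be relative for partial curves) and is censored at the highest tested concentration. Rows with DSS 0 (no meaningful response) were excluded.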

HCC1599 [29] = system: HCC1599; remark: listed apart in the source
Experimental: as §3

BT-474 [30] = system: BT-474; remark: listed apart in the source
Experimental: as §3

CAL-85-1 [31] = system: CAL-85-1; remark: listed apart in the source
Experimental: as §3

CAL-51 [32] = system: CAL-51; remark: listed apart in the source
Experimental: as §3

MCF-10A [33] = system: MCF-10A; remark: listed apart in the source
Experimental: as §3

MDA-MB-436 [34] = system: MDA-MB-436; remark: listed apart in the source
Experimental: as §3

CAL-148 [35] = system: CAL-148; remark: listed apart in the source
Experimental: as §3

MDA-MB-231 [36] = system: MDA-MB-231; remark: listed apart in the source
Experimental: as §3

BT-549 [37] = system: BT-549; remark: listed apart in the source
Experimental: as §3

MFM-223 [38] = system: MFM-223; remark: listed apart in the source
Experimental: as §3

CAL-120 [39] = system: CAL-120; remark: listed apart in the source
Experimental: as §3

MDA-MB-468 [40] = system: MDA-MB-468; remark: listed apart in the source
Experimental: as §3

EC50, CellTiter-Glo (HCC1599 [2]): 206 nM
EC50, CellTiter-Glo (HCC1937): 29.5 nM
EC50, CellTiter-Glo (MDA-MB-436 [6]): 42.9 nM
EC50, CellTiter-Glo (MDA-MB-453): 12.6 nM
EC50, CellTiter-Glo (MDA-MB-231 [9]): 119 nM
EC50, CellTiter-Glo (BT-549 [10]): 26.3 nM
EC50, CellTiter-Glo (HCC1143 [12]): 23.5 nM
EC50, CellTiter-Glo (SK-BR-3 [13]): 3.1 nM
EC50, CellTiter-Blue viability (HCC1599 [16]): 176 nM
EC50, CellTiter-Blue viability (BT-474 [17]): 33.5 nM
EC50, CellTiter-Blue viability (MDA-MB-436 [18]): 72.8 nM
EC50, CellTiter-Blue viability (BT-549 [19]): 37.8 nM
EC50, CellTiter-Blue viability (HCC1143 [21]): 41.8 nM
EC50, CellTiter-Blue viability (SK-BR-3 [22]): 30.9 nM
EC50, CellTiter-Blue viability (MDA-MB-468 [23]): 33.5 nM
Compound: CCC1=C[C@@H]2CN(C1)Cc1c([nH]c3ccccc13)[C@@](C(=O)OC)(c1cc3c(cc1OC)N(C)[C@H]1[C@@](O)(C(=O)OC)[C@H](OC(C)=O)[C@]4(CC)C=CCN5CC[C@]31[C@@H]54)C2 [Vinorelbine]
EC50, CellTiter-Glo (Hs578T [1]): 69.7 nM
EC50, CellTiter-Glo (CAL-85-1 [3]): 24.5 nM
EC50, CellTiter-Glo (MCF-10A [4]): 27.3 nM
EC50, CellTiter-Glo (HDQ-P1 [5]): 40.6 nM
EC50, CellTiter-Glo (CAL-148 [7]): 35.7 nM
EC50, CellTiter-Glo (DU-4475 [8]): 1510 nM
EC50, CellTiter-Glo (MFM-223 [11]): 76.8 nM
EC50, CellTiter-Glo (CAL-120 [14]): 24.1 nM
EC50, CellTiter-Blue viability (Hs578T [15]): 39.8 nM
EC50, CellTiter-Blue viability (MFM-223 [20]): 44.4 nM
EC50, CellTiter-Blue viability (CAL-85-1 [24]): 23.1 nM
EC50, CellTiter-Blue viability (CAL-51 [25]): 116 nM
EC50, CellTiter-Blue viability (HDQ-P1 [26]): 74 nM
EC50, CellTiter-Blue viability (DU-4475 [27]): 304 nM
EC50, CellTox Green (Hs578T [28]): 95.4 nM
EC50, CellTox Green (HCC1599 [29]): 356 nM
EC50, CellTox Green (BT-474 [30]): 85.9 nM
EC50, CellTox Green (CAL-85-1 [31]): 23.2 nM
EC50, CellTox Green (CAL-51 [32]): 45.2 nM
EC50, CellTox Green (MCF-10A [33]): 13.7 nM
EC50, CellTox Green (MDA-MB-436 [34]): 273 nM
EC50, CellTox Green (CAL-148 [35]): 42.5 nM
EC50, CellTox Green (MDA-MB-231 [36]): 263 nM
EC50, CellTox Green (BT-549 [37]): 492 nM
EC50, CellTox Green (MFM-223 [38]): 5.52 nM
EC50, CellTox Green (CAL-120 [39]): 1500 nM
EC50, CellTox Green (MDA-MB-468 [40]): 3510 nM

— the supplement of paper PMC4862054
